Experimental data taken from patent publication US20240180838A1, “NANOPARTICLE (NP) COMPOSITIONS AND METHODS OF USE THEREOF” (RUTGERS, THE STATE UNIVERSITY OF NEW JERSEY, priority 2022, published 2024).
In brackets after ≈: the same amount, converted by molar mass.

Experiments:
[1] = Thermogravimetric analysis, thermal stability; assay type: physicochemical; settings: TG curve
Protocol: The amount of RFX loaded in DAMO/SBA is carefully determined by comparing the thermogravimetric (TG) traces of RFX/SBA and its parent material (DAMO-SBA), after normalizing the weight losses of the two curves at 100° C. (i.e., the temperature at which physisorbed water should be completely evaporated) (FIGS. 4A-4B). The comparison is done at 750° C., after most organic groups are removed from the samples. […] The decomposition profiles for pure RFX and copper(II) acetate, which is the salt used to immobilize Cu(II) ions into the material. As expected, RFX completely decomposes after 500° C. as it comprises mostly organic groups.

[2] = tested on: S. aureus; settings: as reported in the literature; cited from earlier work

Row | Compound | onset temperature of degradation [1] | Minimum inhibitory concentrations (MICs) [2]
1 | O=C(Nc1ccc(Oc2ccc(Cl)cc2)c(Cl)c1)c1cc(I)cc(I)c1O [RFX, N-[3-Chloro-4-(4-chlorophenoxy)phenyl]-2-hydroxy-3,5-diiodobenzamide] | 200 °C | 
2 | CC[C@H]1OC(=O)[C@H](C)[C@@H](O[C@H]2C[C@@](C)(OC)[C@@H](O)[C@H](C)O2)[C@H](C)[C@@H](O[C@@H]2O[C@H](C)C[C@H](N(C)C)[C@H]2O)[C@](C)(O)C[C@@H](C)C(=O)[C@H](C)[C@@H](O)[C@]1(C)O [ERM, erythromycin] |  | 32 µg/mL (≈ 43.6 µM)
3 | COc1cc(Cc2cnc(N)nc2N)cc(OC)c1OC [TRM, trimethoprim] |  | 0.19 µg/mL (≈ 0.654 µM)
